Test results from ChEMBL document CHEMBL1201862, “PubChem BioAssay data set” (2004).
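Dose response: 5 concentrations. Exposure: 48 h. Format: 96-well plates. Endpoint: linear interpolation; highest concentration if not reached. GI50: concentration for 50% inhibition of growth.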 Activity calls are given as the source filed them. No stated cut-off is given here; in the data, active = GI50 up to about 1.1 µM and inactive = higher.

What was measured:
Test in all cases: NCI anticancer screen, dose series, 48 h
OVCAR-4 = test system: OVCAR-4
MOLT-4 = test system: MOLT-4
SN12C = test system: SN12C
HOP-62 = test system: HOP-62
LOX IMVI = test system: LOX IMVI
SR = test system: SR
A498 = test system: A498
SF-295 = test system: SF-295
SK-MEL-5 = test system: SK-MEL-5
NCI/ADR-RES = test system: NCI/ADR-RES
NCI-H23 = test system: NCI-H23
MDA-MB-435 = test system: MDA-MB-435
HL-60 = test system: HL-60
HOP-92 = test system: HOP-92
U-251 = test system: U-251
TK-10 = test system: TK-10
SF-268 = test system: SF-268
CAKI-1 = test system: CAKI-1
CCRF-CEM = test system: CCRF-CEM
OVCAR-8 = test system: OVCAR-8

Measured: GI50

C#CCn1c(I)cc2c(c1=O)COC(=O)[C@]2(O)CC
inactive: OVCAR-4 > 100 µM | MOLT-4 > 100 µM | SN12C > 100 µM | HOP-62 > 100 µM | LOX IMVI > 100 µM | SR > 100 µM | A498 > 100 µM | SF-295 > 100 µM | SK-MEL-5 > 100 µM | NCI/ADR-RES > 100 µM | NCI-H23 > 100 µM | MDA-MB-435 > 100 µM | HL-60 > 100 µM | HOP-92 > 100 µM | U-251 > 100 µM | TK-10 > 100 µM | SF-268 > 100 µM | CAKI-1 > 100 µM | CCRF-CEM > 100 µM | OVCAR-8 > 100 µM
